Measured values taken from patent publication US20210275596A1, “APPLICATION OF GENE PROFILE FOR CELLS ISOLATED USING FRESH-TRACER” (CELL2IN, INC., priority 2018, published 2021).

Columns and labels:
Assay type in all cases: cell-based, human
HeLa cells [1] = assay: FR monitoring in cells loaded with FreSH-tracer; conditions: for change of FR: HeLa cells equilibrated with 5 μM FreSH-tracer for 2 hours
Procedure: To utilize a FreSH-tracer for GSH monitoring in living cells, its cytotoxicity was evaluated. […] HeLa cells were equilibrated with treatment of 5 μM FreSH-tracer for 2 hours. […] The FR in the nucleus was about 1.5- to 2-fold higher than that of the cytoplasm.
The in vitro experiments described above established that H2O2 treatment diminishes only the FRGSH, while having little effect on the FRPSH. […] Thus, the FreSH-tracer can report the real-time dynamic changes of GSH concentration in live cells under oxidative stress.

HeLa cells [2] = assay: Mitochondrial FR monitoring with MitoFreSH-tracer
Excerpt: The mitochondrion is the major site of endogenous ROS generation during normal oxidative metabolism. Cytosolic GSH is transported to the mitochondria, preventing macromolecular damage and modulating ROS-induced signaling. To further analyze the FR heterogeneity in the cytoplasm, a mitochondria-targeting FreSH-tracer derivative, designated MitoFreSH-tracer was synthesized by attaching a triphenylphosphonium moiety to a FreSH-tracer.

hES-MSCs [3] = assay: Chemotaxis to PDGF-AA; conditions: for effect on chemoattraction to PDGF: naive hES-MSCs
Procedure: FIGS. 4A, 4B, 4C and 4D are graphs showing analyses of colony-forming unit fibroblasts (CFU-F; n=15), limiting dilution by replating primary CFU colonies (n=6), chemotaxis to stromal derived factor-1α (SDFα; 150 ng/mL, n=8), and chemotaxis to 10 ng/mL platelet-derived growth factor (PDGF)-AA in the absence or presence of STI571 (0.5 μg/mL), a PDGFR inhibitor (n=8).
At this time, for differentiation media, the cells were maintained and cultured in each of adipogenic induction medium (DMEM supplemented with 5% FBS, […], […], […] and 0.5 mM isobutylmethylxanthine), osteogenic induction medium (DMEM supplemented with 5% FBS, […], […], and 10 mM glycerophosphate), and chondrogenic induction medium (e.g., StemPro chondrogenesis, Invitrogen). FIG. 3 is a graph showing the results of qPCR performed to quantify lineage-specific genes in non-differentiated(Non) FR^High cells and FR^Low cells and differentiated(Diff) FR^High cells and FR^Low cells. Additionally, FR^High hES-MSCs had approximately 4.7- and 4.9-fold higher numbers of CFU-F than did FR^Mild and FR^Low cells, respectively (FIG. 4A).

hES-MSCs [4] = assay: GSH depletion or supplementation: clonogenic and migration capacities

Q: Which “change of FR” value (HeLa cells [1]) does the source give for `CCN1C(=O)C=CC1=O` [NEM] here?
A: The value was “gradually decreased”.

Q: With `O=[N+]([O-])c1ccc(Cl)c([N+](=O)[O-])c1` [1-chloro-2,4-dinitrobenzene] as the compound, how does the “restoring of FR after diamide” value (HeLa cells [1]; GSH-depleted HeLa cells) read?
A: Its value is “abrogated”.

Q: Which “change of mitochondrial FR” value (HeLa cells [2]) does the source give for `CN(C)C(=O)/N=N/C(=O)N(C)C` [diamide] here?
A: The value was “decreased”.

Q: And the “change of FR” value (HeLa cells [1])?
A: The value was “gradually decreased”.

Q: antimycin A was tested. Which “change of mitochondrial FR” value (HeLa cells [2]) did it give?
A: Its value is “concentration-dependent decrease”.

Q: For `O[C@@H](CS)[C@@H](O)CS` [DTT], which “change of FR” value (HeLa cells [1]) is on record?
A: The value was “rapidly increased”.

Q: Which results are given for `CCCCS(=N)(=O)CCC(N)C(=O)O` (centres unmarked) [BSO, buthionine sulfoximine]?
A: effect on chemoattraction to PDGF (hES-MSCs [3]): significant repression; effect on enhanced clonogenic and migration capacities and related gene upregulation (hES-MSCs [4]; FR^High hES-MSCs): severely impaired

Q: For `Cc1ccc(NC(=O)c2ccc(CN3CCN(C)CC3)cc2)cc1Nc1nccc(-c2cccnc2)n1` [STI571], which “effect on PDGF chemotactic activity of FR^High cells” value (hES-MSCs [3]; STI571 0.5 μg/mL, 10 ng/mL PDGF-AA) is on record?
A: The value was “significantly blocked”.

Q: Which results are given for `CCOC(=O)CNC(=O)[C@H](CS)NC(=O)CC[C@H](N)C(=O)O` [GSH-EE, glutathione ethyl ester]?
A: effect on chemoattraction to PDGF (hES-MSCs [3]): activation; effect on declined cellular functions (hES-MSCs [4]; FR^Low hES-MSCs): reversed
